{"source": "paper PMC11460631", "about": "“Inhibition of transient receptor potential vanilloid 3 channels by antimalarial hydroxychloroquine alleviates TRPV3-dependent dermatitis” (The Journal of Biological Chemistry, 2024)", "test_system": "C57BL/6J male mice", "assay": "Carvacrol-induced AD-like mouse model: skin appearance scores and H&E epidermal thickness", "type": "in vivo", "experimental": "We therefore generated a carvacrol-induced AD mouse model to test the effect of HCQ.\nTo investigate the effect of HCQ on carvacrol-induced dermatitis in animals, C57BL/6J male mice (aged 6 weeks) were obtained from the Animal Experimental Center of Hangzhou Medical College (Hangzhou, Zhejiang Province). Mice were housed and maintained in an environment with a 12-h light/dark cycle and a controlled temperature of 22.0 ± 2.0 °C. Food and water were accessible ad libitum. All the animal procedures were approved by the Institutional Animal Care & Use Committee of Zhejiang Center of Laboratory Animals (ZJCLA).\nTo generate an AD-like mice model, 2% carvacrol (dissolved in 30% ethanol solution) was topically smeared onto the mice dorsum 1 day after hair removal with a depilatory cream (Vetin Depilatory Cream). Mice received a topical administration of an equal volume (200 μl) of 2% carvacrol or in the presence of 2 mg/ml HCQ. […] After the application of carvacrol for 5 days, the external appearance of mice was photographed and then sampled. The external appearance was graded based on three aspects: thickness, erythema/bleeding, and dryness/desquamation, with severity assessed on a score of 0 to 4. The degree of thickness was measured by the thickness of the skin in H&E staining. Skin tissues were either fixed in 4% paraformaldehyde or placed in PBS buffer containing 1% protease inhibitor, facilitating subsequent steps of paraffin embedding or ELISA experiments.\nMice were sacrificed 24 h after the last dose of treatment. Mouse dorsal skin was removed with scissors and forceps before being fixed with 4% paraformaldehyde. Paraffin-embedded tissues were sectioned and stained with H&E. Pictures of stained sections were acquired with a Nikon Eclipse Ti-S microscope with a charge-coupled device camera (DS-Ri2, Nikon).", "data": [{"compound": "CCN(CCO)CCCC(C)Nc1ccnc2cc(Cl)ccc12", "note": "(stereo not drawn) [HCQ, hydroxychloroquine]", "values": [{"measurement": "dry desquamation score", "setting": "score of 0 to 4, topical, 5 days, 2% carvacrol alone or with HCQ 2 mg/ml", "result": "1.50 ± 0.22"}, {"measurement": "erythema score", "setting": "score of 0 to 4, topical, 5 days, 2% carvacrol alone or with HCQ 2 mg/ml or DXM 1 mg/ml", "result": "1.67 ± 0.33"}, {"measurement": "epidermal thickness (H&E staining)", "setting": "topical with 2% carvacrol, once a day for 5 days, HCQ 2 mg/ml, DXM 1 mg/ml, 200 μl", "result": "51.49 ± 3.01", "unit": "μm"}]}]}
